In publication PMC7083880 (Nature Communications, 2020):
Where “and” joins values, the source holds several entries; their conditions need not be identical. Equal values may be shown once.

Tests used:
[1] = test system: firefly luciferase (Fluc) gene with UAA nonsense codon at position 109 in HeLa cells; experiment: Firefly luciferase readthrough assay, UAA PTC construct; format: cell-based, human
[2] = target: T1, FTSJ1 (Homo sapiens, UniProt Q9UET6); experiment: UGA readthrough luciferase assay with FTSJ1 overexpression; format: cell-based
T1 construct: host or cells: HeLa
T1 sequence (Q9UET6 1-329): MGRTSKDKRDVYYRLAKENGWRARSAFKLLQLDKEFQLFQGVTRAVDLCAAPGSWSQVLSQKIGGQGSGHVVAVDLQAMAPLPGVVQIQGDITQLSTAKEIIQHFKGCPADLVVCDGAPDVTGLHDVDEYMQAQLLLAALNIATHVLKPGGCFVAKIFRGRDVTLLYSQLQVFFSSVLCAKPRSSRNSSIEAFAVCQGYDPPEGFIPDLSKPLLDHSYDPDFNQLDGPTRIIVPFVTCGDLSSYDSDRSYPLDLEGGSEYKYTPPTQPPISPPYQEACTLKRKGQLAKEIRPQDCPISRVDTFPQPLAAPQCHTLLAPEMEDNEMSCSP
Description: Firefly luciferase from HEK293FT cells transfected with the Fluc-int-UGA construct was immunoprecipitated and digested with trypsin. The MS/MS spectrum of the peptide containing the PTC position and the sequence determination are shown. The upper red and blue sequences indicate the amino acids validated, respectively, by detection of Nter and Cter peptide fragments (b and y ion series). Peptide fragments y6 and y7 clearly identify tryptophan (W) at the PTC position. The black peaks correspond to non-attributed mass-to-charge ratio (m/z) values. […] Readthrough efficiency was determined by measuring luciferase activity in HeLa cells co-transfected with the firefly luciferase construct described in Fig. 1b and with increasing amounts of an expression vector for either FTSJ1 or CTU1 (0.5, 1, or 2 µg). The empty expression vector (E.v.) was used as control. […] The experiment was performed twice and the results of both experiments (Exp1 and Exp2) are shown. c Western blot analysis of FTSJ1 and CTU1. d 2′-O-methylation analysis of tRNA^Trp, tRNA^SER, and tRNA^GLN by RiboMethSeq. […] A molecular weight marker is indicated to the left of each gel. p-values (p) were calculated using Student’s t-test. Source data are provided as a Source Data file.
Among the enzymes modifying tRNAs liable to recognize a stop codon by extended wobbling, human FTSJ1 (TRM7 in yeast) exclusively modifies tRNAs involved in UGA readthrough. In addition to other tRNA targets, FTSJ1 methylates the cytosine at position 34 of tRNA^Trp. Inhibition of this modification could increase the capacity of tRNA^Trp to misdecode and recognize the UGA stop codon. […] FTSJ1 and CTU1 overexpression were assessed by western-blot analysis (Fig. 5c).

## Nc1nc(N)c2[nH]cnc2n1 [DAP, 2,6-diaminopurine]
[1]; DAP 3.75µM, average of 2 experiments
  Luciferase activity, UAA PTC: 370.75±86 and 370.75
[1]; DAP 3.75µM, experiment 1
  Luciferase activity, UAA PTC: 310
[1]; DAP 3.75µM, experiment 2
  Luciferase activity, UAA PTC: 431.5
[1]; DAP 37.5µM, average of 2 experiments
  Luciferase activity, UAA PTC: 610.75±408 and 610.75
[1]; DAP 37.5µM, experiment 1
  Luciferase activity, UAA PTC: 322.5
[1]; DAP 37.5µM, experiment 2
  Luciferase activity, UAA PTC: 899
[2]; 0.5µg FTSJ1, 0.39µM
  luciferase activity, average: 904.125
  luciferase activity, exp1: 632.5
  luciferase activity, exp1*1,5: 948.75
  luciferase activity, exp2: 859.5
[2]; 0.5µg FTSJ1, 0.78µM
  luciferase activity, average: 1247.62
  luciferase activity, exp1: 776.5
  luciferase activity, exp1*1,5: 1164.75
  luciferase activity, exp2: 1330.5
[2]; 0.5µg FTSJ1, 1.56µM
  luciferase activity, average: 1901
  luciferase activity, exp1: 1287
  luciferase activity, exp1*1,5: 1930.5
  luciferase activity, exp2: 1871.5
[2]; 0.5µg FTSJ1, 6.25µM
  luciferase activity, average: 9598.75
  luciferase activity, exp1: 3517
  luciferase activity, exp1*1,5: 5275.5
  luciferase activity, exp2: 13922
[2]; 0.5µg FTSJ1, 25µM
  luciferase activity, average: 34831.4
  luciferase activity, exp1: 13760.5
  luciferase activity, exp1*1,5: 20640.8
  luciferase activity, exp2: 49022
[2]; 0.5µg FTSJ1, 100µM
  luciferase activity, average: 81250
  luciferase activity, exp1: 48276
  luciferase activity, exp1*1,5: 72414
  luciferase activity, exp2: 90086
[2]; 0.5µg FTSJ1, 300µM
  luciferase activity, average: 102352
  luciferase activity, exp1: 48428.5
  luciferase activity, exp1*1,5: 72642.8
  luciferase activity, exp2: 132062
[2]; 0.5µg FTSJ1, 600µM
  luciferase activity, average: 91333.2
  luciferase activity, exp1: 34760
  luciferase activity, exp1*1,5: 52140
  luciferase activity, exp2: 130526
[2]; 1µg FTSJ1, 0.39µM
  luciferase activity, average: 825.625
  luciferase activity, exp1: 545.5
  luciferase activity, exp1*1,5: 818.25
  luciferase activity, exp2: 833
[2]; 1µg FTSJ1, 0.78µM
  luciferase activity, average: 1113.62
  luciferase activity, exp1: 667.5
  luciferase activity, exp1*1,5: 1001.25
  luciferase activity, exp2: 1226
[2]; 1µg FTSJ1, 1.56µM
  luciferase activity, average: 1547.75
  luciferase activity, exp1: 877
  luciferase activity, exp1*1,5: 1315.5
  luciferase activity, exp2: 1780
[2]; 1µg FTSJ1, 6.25µM
  luciferase activity, average: 5589
  luciferase activity, exp1: 2330
  luciferase activity, exp1*1,5: 3495
  luciferase activity, exp2: 7683
[2]; 1µg FTSJ1, 25µM
  luciferase activity, average: 18207.6
  luciferase activity, exp1: 6784.5
  luciferase activity, exp1*1,5: 10176.8
  luciferase activity, exp2: 26238.5
[2]; 1µg FTSJ1, 100µM
  luciferase activity, average: 59739.5
  luciferase activity, exp1: 25052
  luciferase activity, exp1*1,5: 37578
  luciferase activity, exp2: 81901
[2]; 1µg FTSJ1, 300µM
  luciferase activity, average: 78923.5
  luciferase activity, exp1: 30654
  luciferase activity, exp1*1,5: 45981
  luciferase activity, exp2: 111866
[2]; 1µg FTSJ1, 600µM
  luciferase activity, average: 72130.6
